From patent US12558369B2, “Compositions and methods of treating Fanconi Anemia” (Dana-Farber Cancer Institute, Inc., priority 2015, dated 2026) come the findings set out here.

Entries after “also recorded” stand apart in the source; their conditions may differ.

Data set [1] relates to primary HSPCs from bone marrow of FA patients. In words: Colony forming assay of primary CD34+ bone marrow cells from FA patients. It counts as cell-based, human. The note with it: methylcellulose, colonies after 10 days. The source says: (§1) (A) Hierarchical clustering and heat-map of the expression of TGF-β pathway genes in human FA and non-FA bone marrow samples using gene set enrichment analysis. (B-F) Colony forming assays using primary CD34+ bone marrow cells from five FA patients. Cells were transduced with lentiviruses encoding shControl, shTP53 or shSMAD3 followed by selection for puromycin resistance and then plated in methylcellulose cultures or the cells were directly plated in methylcellulose cultures containing GC1008 for colony growth. The hematopoietic colonies were counted after 10 days in culture. (G-I) Colony forming assays using FA-like CD34+ cells from human cord blood. As shown in the schematic (G), FA-like CD34+ cells were generated by transducing human cord blood CD34+ cells with lentivirus encoding shFANCD2. […] Hematopoietic colonies were counted after 10-14 days in culture (I). (J) Colony forming assay of FA-like CD34+ cells with GC1008 treatment. Hematopoietic colonies were counted after 10-14 days in culture. […] Human cells were analyzed in the peripheral blood at 2 weeks post transplantation. […] Representative images (L) and quantification (M) of γH2AX foci in cord blood CD34+ cells transduced with lentivirus encoding shFANCD2 or shControl. […] Cells were then analyzed for γH2AX foci by immunofluorescence. Thirty to hundred cells with more than 5 foci were counted for each sample. […]

In data set [2] the test system is FA-like CD34+ cells from human cord blood. In words: Colony forming assay of FA-like CD34+ cells. Format: cell-based. To be noted: GC1008 10 μg/mL, colonies after 10-14 days.
Source text: as §1, with “blood.” for “blood. As shown in the schematic (G), FA-like CD34+ cells were generated by transducing human cord blood CD34+ cells with lentivirus encoding shFANCD2.”, “(J) Colony forming assay of FA-like CD34+ cells with GC1008 treatment.” left out
(§2) (Dataset: GSE16334). […] Cells were cultured in methylcellulose medium post MMC treatment (2 h at 100 ng/mL) and hematopoietic colonies were counted after 10 days in culture. […] Hematopoietic colonies were counted after 10-14 days in culture. […]

Data set [3] deals with FA-like CD34+ cells in NSG mice. Kind of data set: In vivo xenograft assay of FA-like CD34+ cells. More on the design: species or system mouse. To be noted: 10 mg/kg, 3 doses per week for 2 weeks, peripheral blood at 2 and 8 weeks.
Source text: as §1, with “blood.” for “blood. As shown in the schematic (G), FA-like CD34+ cells were generated by transducing human cord blood CD34+ cells with lentivirus encoding shFANCD2.”, “(J) Colony forming assay of FA-like CD34+ cells with GC1008 treatment.” left out
as §2

For a further data set, the system named is FA-like HSPCs. In words: γH2AX and 53BP1 foci after MMC in FA-like HSPCs. Format: cell-based, human.
Source text: as §1, with “(J) Colony forming assay of FA-like CD34+ cells with GC1008 treatment.” left out
HSPCs. […] Representative images (F) and quantification (G) of 53BP1 foci are shown.

The subject of a further data set is Fancd2−/− stromal cells. Kind of data set: Immunoblot of phosphorylated Erk1/2 in bone marrow stromal cells. Format: cell-based, mouse. The method, then:
FIG. 2. Characterization of FA murine primary bone marrow stromal fibroblast. • A) Survival of Fancd2+/+ or Fancd2−/− stromal cells in the presence of MMC. Data are shown in triplicate. […] (Left panel) Active mouse Tgfβ1 serum levels in the culture supernatant of Fancd2+/+ or Fancd2−/− stromal cells were evaluated by ELISA. (Right panel) qRT-PCR analysis of Tgfb1 mRNA expression. Data are shown the average of three independent experiments. Error bars represent s.e.m. • C) Immunoblots of phosphorylated Erk1/2 in stromal cells treated with Tgfβ for the indicated time.
FIG. 3. […] Error bars represent s.e.m.
Human FA cells EUFA316 were grown in RPMI1640 (Life Technologies) supplemented with 10% fetal calf serum. Fancd2^+/+ and Fancd2^−/− bone marrow stromal cells were established by culturing whole bone marrow in DMEM with 10% FBS. Fancd2^−/− stromal cells were complemented with human FANCD2 by retroviral transduction of FANCD2 cDNA in pMMP-PURO vector, followed by selection in puromycin. Whole cell extracts were prepared by lysing cells in radioimmunoprecipitation assay buffer (50 mmol/L Tris, pH 7.3, 150 mmol/L NaCl, 1 mmol/L EDTA, 1% Triton X-100, 0.5% Na-deoxycholate, and 0.1% SDS) with complete protease inhibitor, NaVO4, and NaF.

Data set [4] has as its system Fancd2−/− BM Stromal cells. In words: Colony forming capacity of bone marrow stromal cells. It counts as cell-based, mouse. The note with it: 1 μM Mek-i. On the procedure:
FIG. 3. […] Fancd2+/+ stromal cells shown as a control. • B) Colony forming capacity of Fancd2−/− BM Stromal cells is improved by treatment with 1 μM Mek-i. • C) Immunoblot analysis showing deletion of Tgfbr1, Smad3 and p53 in murine Fancd2+/+ and Fancd2−/− stromal cells • D) Survival of Fancd2−/− stromal cells with deletion of Tgfbr1, Smad3 or p53 in presence of MMC. Error bars represent s.e.m.
FIG. 9. […] Representative image of colonies of Fancd2+/+ and Fancd2−/− cells incubated with or without 1 μM Mek inhibitor.
(§3) For survival assays, cells were seeded at a density of 1×10^3 cells per well in 96-well plates. After 72 hours of culture in indicated concentrations of MMC or post exposure of acetaldehyde, viability was assessed using CellTiterGlo reagent (Promega). In order to assess clonogenicity, cells were seeded at a low density (500-1000 cells per well) in 6-well plates and allowed to form colonies. The cells were then fixed in methanol/20% acetic acid and stained with 1% crystal violet. Colony formation was assessed by solubilizing crystal violet stain with methanol and quantifying UV absorbance for each condition.

Data set [5] concerns EUFA316 (FA-G fibroblasts). In words: MMC sensitivity survival assay of FA cells with TGFβ pathway inhibitors. Format: cell-based, human. The method, then: FIG. 1. TGFβ pathway disruption enhances FA cellular growth. • A) RIGER P value analysis to identify top candidate genes. • B) Clonogenic survival of GM6914 (FA-A fibroblasts) and FANCA-corrected GM6914 cells after shRNA mediated knockdown of SMAD3. Cells were treated with increasing doses of MMC and plated for 10-12 days. The average of two experiments is presented; error bars represent s.e.m.
as §3
For survival assays, cells were seeded at a density of 1×10^3 cells per well in 96-well plates. After 3-6 days of culture in indicated concentrations of MMC or post exposure of acetaldehyde, viability was assessed using CellTiterGlo reagent (Promega). In order to assess clonogenicity, cells were seeded at a low density (500-1000 cells per well) in 6-well plates and allowed to form colonies. The cells were then fixed in methanol/20% acetic acid and stained with 1% crystal violet. Colonies were counted after crystal violet staining.

The subject of data set [6] is U2OS cells. In words: NHEJ reporter assay. It counts as cell-based, human. The note with it: template reporter assay. In general terms: A reporter such as luciferase makes a cellular process visible.
Data set [7] concerns U2OS cells. In words: Immunoblot of DNA-PK phosphorylation. Format: cell-based, human.
Another data set deals with Fancd2−/− HSPCs. In words: Clonogenic assay of HSPCs in methylcellulose. Format: cell-based, mouse. The note with it: TGF-β1 1 ng/mL, Ab 10 μg/mL or SD208 10 μM; colonies after 7-10 days. On the procedure:
(A) Expression of phospho-Smad2/3 proteins in HSPCs from WT and Fancd2−/− mice as detected by flow cytometric analysis. (B) Quantification of mean fluorescence intensity (MFI) of phospho-Smad2/3 staining by flow cytometric analysis shown in (A) in HSPCs from WT and Fancd2−/− mice. (C) Fancd2−/− HSPCs are more sensitive to TGF-β1 than WT HSPCs. Sorted Lin− cells from WT or Fancd2−/− mice were exposed to TGF-β1. After 5 days in culture, LSK cells were analyzed by flow cytometry and quantified. Data are shown after normalizing to untreated WT group. […] Sorted Lin− cells from WT and Fancd2−/− mice were exposed to TGF-β1 (1 ng/mL) with or without TGF-beta 1,2,3 Ab (10 μg/mL) or SD208 (10 μM), and viable cells were counted after 5 days in culture. Data shown are after normalizing to untreated WT group. Error bars represent mean±s.e.m. (F) Clonogenic assay of WT and Fancd2−/− HSPCs treated with TGF-β1, TGF-beta 1, 2, 3 Ab or SD208. […] Hematopoietic colonies were counted after 7-10 days in culture. […] (I) Representative FACS plots of LSK cells analyzed by flow cytometry for GFP expression after 5 days in vitro culture in stem cell culture medium. […] Luciferase activity was measured. (L) Binding of FANCD2 to SMAD1 promoter (region −2108 to −1950 bp) upon DNA damage as detected by ChIP assay using anti-FANCD2 antibody in corrected GM6914 (+FANCA) but not GM6914 (+Vector) fibroblast cells. […]

For a further data set, the system named is Fancd2-deficient mice. In words: pIpC physiological stress-induced bone marrow failure, LT-HSC DNA damage. Format: in vivo, mouse. From the text: FIG. 13. […] Mice were pretreated in vivo with either no Tgfβ inhibitor, the neutralizing antibody to Tgfβ 1, 2, 3, or the Tgfβ receptor kinase inhibitor, Galunisertib.
[8] abbreviates: mice pretreated in vivo, LT-HSCs isolated.

For the compound “GC1008: anti-human TGF-β neutralizing antibody”, the “clonogenic defects of primary HSPCs from FA patients” value in data set [1] is given as “rescued the clonogenic defects”. In addition, the “clonogenic capacity of FA-like HSPCs” value in [2] was “markedly rescuing the clonogenic capacity”. In addition, in [3], the “engraftment of primary FA-like CD34+ cells” value was “enhanced the engraftment”. The “number of FA-like HSPCs with 53BP1 foci” value in the data set on FA-like HSPCs (MMC 100 ng/mL 2 h, 24 h recovery) is listed as “significantly reduced”. For the same compound, in the data set on FA-like HSPCs (MMC 100 ng/ml 2 hrs, 24 hrs recovery), the “number of FA-like HSPCs with γH2AX foci” value is “significantly reduced”.
For `O=C(NOC[C@H](O)CO)c1ccc(F)c(F)c1Nc1ccc(I)cc1F` [PD0325901], the Erk1/2 phosphorylation result in the data set on Fancd2−/− stromal cells (mouse stromal cells exposed to MEK inhibitor) was “inhibition of Erk1/2 phosphorylation; also recorded: reduces p-Erk1/2 expression”. Also, the figures for the “clonogenicity / colony forming capacity of Fancd2−/− stromal cells” value in data set [4] and in [4] (listed as Mek-i) were “significantly increased the clonogenicity” and “improved”, respectively.
Turning to `COc1cc2c(cc1OC)CN(C(=O)/C=C/c1c(-c3ccccc3)n(C)c3ncccc13)CC2` [SIS3], the “FA cells survival in the presence of MMC” value in data set [5] (FA cell lines with inhibitor) is on record as “improved FA cells survival in the presence of MMC”. Also, the “cytotoxicity of corrected FA cells” value in [5] (corrected FA cells) was “do not significantly alter cytotoxicity of corrected FA cells”. For the same compound, the NHEJ activity entry with U2OS cells [6] was “decreased NHEJ”. Further, in the data set with U2OS cells [7], the “phosphorylation of DNA-PK” value is “blocks phosphorylation of DNA-PK”.
With “TGF-β1: recombinant TGFβ1 cytokine (human from ProPeptide, mouse from R&D)”, the “pErk1/2 after mTGFβ1 exposure” value in the data set on Fancd2−/− stromal cells (FA stromal cells) was “further activated pErk1/2”. For the same compound, in the data set with U2OS cells [7], the “phosphorylation of DNA-PK” value is on record as “activated phosphorylation of DNA-PK”. Moreover, in the data set on Fancd2−/− HSPCs, the “clonogenic ability of Fancd2−/− HSPCs” value was “inhibited”.
Consider `Cc1cccc(-c2nn3c(c2-c2ccnc4ccc(C(N)=O)cc24)CCC3)n1` [Galunisertib], for which, in the data set on Fancd2-deficient mice (setting [8]), the “pIpC-induced DNA damage in LT-HSCs, comet assay” value was “rescued the pIpC-induced DNA damage” and the “pIpC-induced DNA damage, gamma H2AX foci” value was “rescued the pIpC-induced DNA damage”. For the same compound, in the data set on Fancd2-deficient mice (mice, pIpC, pretreated in vivo), the “physiological stress-induced bone marrow failure” value is “rescues physiological stress-induced bone marrow failure”.
